Values of other authors, collected in patent US20180311203A1, “LIQUID FORMULATION OF CABAZITAXEL” (EMCURE PHARMACEUTICALS LIMITED, priority 2015, published 2018).

## CO[C@H]1C(=O)[C@]2(C)[C@@H](OC)C[C@H]3OC[C@@]3(OC(C)=O)[C@H]2[C@H](OC(=O)c2ccccc2)[C@]2(O)C[C@H](OC(=O)[C@H](O)[C@@H](NC(=O)OC(C)(C)C)c3ccccc3)C(C)=C1C2(C)C [cabazitaxel, (2α,5β,7β, 10β,13a)-4-acetoxy-13-({(2R,3S)-3 [(tertbutoxycarbonyl)amino]-2-hydroxy-3-phenylpropanoyl}oxy)-1-hydroxy-7,10-dimethoxy-9-oxo-5,20-epoxytax-11-en-2-yl benzoate]
  solubility in water: about 8 pg per mL
